Tests used:
PC3 [1] = test: In vitro sphere-forming assay (cancer stem cells), Prostosphere media; details: for 3D sphere count of PC3: Prostosphere media, 2000 cells/well, n = 6 ± S.D
Procedure: In Vitro Sphere-forming Assay: Sphere assay measures the ability of cancer stem cells (CSCs) to form spheres in specially designed serum-free medium.
Prostosphere Media Preparation (For 100 mL):1 g methyl cellulose autoclaved with magnetic stirrer, 100 mL plain media (Prostate Epithelial Basal Medium) was added and dissolved, under magnetic stirring. After complete dissolution, Insulin-40 μL, B27-2 mL, EGF-80 μL, Penstrep-1 ml was added.
Procedure—The cells were trypsinised and made into single-cell suspension by passing through cell strainers (100 μl and 40 μl, respectively), The cells were diluted at a concentration of 2000 cells/100 μL and suspended in either Mammosphere (for breast cell lines) or Prostosphere (for prostate cell lines). 100 μL of this suspension was added into each well of 96-well suspension plates and incubated at 37° C., 5% CO2 for 24 hrs. Appropriate concentrations of the drugs (2 μL) were added into respective wells with 100 μL of stem cell culture medium. Plates were incubated at 37° C., 50 CO2 for 72 hrs. After incubation, 2.5 μL of the respective drug concentration and 50 μL of stem cell culture medium were added into each well and the plates were further incubated at 37° C., 50% CO2 for 72 hrs. 3 μL of the respective drug concentration was added with 50 μL of stem cell culture medium again after incubation and plates were reincubated for 72 hrs at 37° C., 50 CO2. Number of primary spheres formed for each concentration were counted. The spheres were converted to 0 viability of spheres compared to untreated (Growth Control with DMSO, GCD).

MDAMB231 [2] = test: In vitro antiproliferative assay (MTT assay), breast cancer cell line; type: cell-based; details: Homo sapiens
Procedure: (§1) MTT assay is a simple and sensitive assay where, metabolic reducing activity of the cells is measured. The increase of this activity in time is taken as a parameter of cell growth. If treatment with a drug impairs this increase, the action is a consequence of growth inhibition, cell killing or both. […] All cell lines were cultured in a 37° C. incubator with a 5% CO2 environment. Compounds were dissolved in DMSO with a concentration of 0.1M (stock solution). Cells were seeded into 96-well plates at suitable plating efficiency.
(§2) Following plating efficiencies were standardized for MTT assay:
(§3) In the MTT procedure, the cells were plated in 96 well plates as per predetermined plating efficiency (Table1). The plates were then incubated for 24 hrs in 5% CO2 atmosphere at 37° C. Appropriate concentrations of the drugs were then added to the plate and further incubation was carried out for 48 hrs (in 5% CO2 atmosphere at 37° C.). The assay plate was then centrifuged twice at 3000 rpm for 3 mins and supernatant was then discarded. 100 ul of MTT solution (0.5 mg/ml) was then added to each well of the plate and it was further incubated for 4 hrs (in 5% CO2 atmosphere at 37° C.) Following 4 hr incubation, the plate was then centrifuged twice, and supernatant was aspirated off very carefully. 200 ul of DMSO was then added to each well to solubilize. MTT crystals and mixed well by shaking the plate. XY graph of log percent viability was then plotted against log drug concentration.

MDAMB231 [3] = test: In vitro sphere-forming assay (cancer stem cells), Mammosphere media; details: for 3D sphere count of MDAMB231: Mammosphere media, 2000 cells/well, n = 6 ± S.D
PC3 [4] = test: In vitro antiproliferative assay (MTT assay), prostate cancer cell line; type: cell-based; details: Homo sapiens
Procedure: as §1, §2, §3

[5] = Homo sapiens, PC-3, read-out: % Viability of spheres (PC3)
[6] = MDA-MB-231, 48 h, MTT assay, breast cancer MDAMB231, 48 hrs drug incubation
[7] = Homo sapiens, MDA-MB-231, read-out: % Viability of spheres (MDAMB231)
[8] = PC-3, 48 h, MTT assay, prostate cancer PC3, 48 hrs drug incubation
[9] = MDA-MB-231, MTT assay, MDAMB231

SMILES	IC50 (MDAMB231 [2]; [6]) [nM]	IC50 (PC3 [4]; [8]) [nM]	viability at 0.025 µM (PC3 [1]; [5]) [%]	viability at 0.25 µM (PC3 [1]; [5]) [%]	viability at 2.5 µM (PC3 [1]; [5]) [%]	viability at 25 µM (PC3 [1]; [5]) [%]	3D sphere count of PC3 (PC3 [1]; drug 0.025 uM)	3D sphere count of PC3 (PC3 [1]; drug 0.25 uM)	3D sphere count of PC3 (PC3 [1]; drug 2.5 uM)	3D sphere count of PC3 (PC3 [1]; drug 25 uM)	viability at 0.025 µM (MDAMB231 [3]; [7]) [%]	viability at 0.25 µM (MDAMB231 [3]; [7]) [%]	viability at 2.5 µM (MDAMB231 [3]; [7]) [%]	viability at 25 µM (MDAMB231 [3]; [7]) [%]	3D sphere count of MDAMB231 (MDAMB231 [3]; drug 0.025 uM)	3D sphere count of MDAMB231 (MDAMB231 [3]; drug 0.25 uM)	3D sphere count of MDAMB231 (MDAMB231 [3]; drug 2.5 uM)	3D sphere count of MDAMB231 (MDAMB231 [3]; drug 25 uM)	viability at 0.0025 µM (PC3 [1]; [5]) [%]	3D sphere count of PC3 (PC3 [1]; drug 0.0025 uM)	also measured
O=C1C(c2ccc(F)cc2)=CC(=O)c2c(OCCN3CCOCC3)cccc21 [Formula 7, 5-(2-morpholinoethoxy)-2-(4-fluorophenyl) naphthalene-1,4-dione]	451	246	71	50	35	21	57(±3)	40(±3)	28(±2)	17(±3)	83	60	43	31	59(±3)	43(±3)	31(±3)	22(±3)			viability at 250 µM (PC3 [1]; [5]): 11%; 3D sphere count of PC3 (PC3 [1]; drug 250 uM): 9(±2); viability at 250 µM (MDAMB231 [3]; [7]): 15%; 3D sphere count of MDAMB231 (MDAMB231 [3]; drug 250 uM): 11(±3)
O=C1C=C(Oc2ccc3c(c2)OCO3)C(=O)c2c(OCCN3CCOCC3)cccc21 [Formula 79, 8-(2-morpholinoethoxy)-2-(benzo[d][1,3]dioxol-6-yloxy)naphthalene-1,4-dione]	502	527	57	43	30	20	55(±3)	43(±3)	33(±3)	24(±4)	56	39	26	19	51(±3)	35(±3)	24(±3)	17(±3)	78	65(±4)	viability at 0.0025 µM (MDAMB231 [3]; [7]): 76%; 3D sphere count of MDAMB231 (MDAMB231 [3]; drug 0.0025 uM): 69(±3)
O=C1C=C(Oc2ccc(F)cc2)C(=O)c2c(OCCN3CCOCC3)cccc21 [Formula 80, 8-(2-morpholinoethoxy)-2-(4fluorophenoxy)naphthalene-1,4-dione]	352	482	56	37	27	17	45(±3)	30(±2)	22(±4)	14(±3)	53	39	23	15	48(±3)	35(±4)	21(±3)	14(±4)	73	59(±3)	viability at 0.0025 µM (MDAMB231 [3]; [7]): 75%; 3D sphere count of MDAMB231 (MDAMB231 [3]; drug 0.0025 uM): 68(±4)
COc1ccc(OC2=CC(=O)c3c(OCCCN4CCOCC4)cccc3C2=O)cc1 [Formula 77]	2220	269	68	51	36	26	55(±3)	41(±3)	29(±6)	21(±3)	70	53	40	30	63(±5)	48(±3)	36(±4)	27(±3)	80	64(±3)	viability at 0.0025 µM (MDAMB231 [3]; [7]): 82%; 3D sphere count of MDAMB231 (MDAMB231 [3]; drug 0.0025 uM): 74(±4)
COc1ccc(OC2=CC(=O)c3c(OCCCCN4CCOCC4)cccc3C2=O)cc1 [Formula 85]																					IC50 (MDAMB231 [2]; [9]): 4140 nM; IC50 (PC3 [4]; PC-3, MTT assay, PC3): 2360 nM
COc1ccc(OC2=CC(=O)c3c(OCCN4CCCCC4)cccc3C2=O)cc1 [Formula 84]																					IC50 (MDAMB231 [2]; [9]): 562 nM; IC50 (PC3 [4]; PC-3, MTT assay, PC3): 492 nM

Source: patent US20240018132A1, “5-HYDROXY-1,4-NAPHTHALENEDIONE FOR USE IN THE TREATMENT OF CANCER” (GODAVARI BIOREFINERIES LIMITED, priority 2020, published 2024)
